# Reference: PubChem BioAssay (NCI)
#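 GI50: concentration for 50% inhibition of growth. TGI: concentration producing complete growth inhibition.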
# How the values were obtained:
# Test in all cases: NCI anticancer screen, dose series, 384-well format
# A498 renal = tested on: A498 renal
# CCRF-CEM leukemia = tested on: CCRF-CEM leukemia
# DU-145 prostate = tested on: DU-145 prostate
# HCC-2998 colon = tested on: HCC-2998 colon
# HOP-62 NSCLC = tested on: HOP-62 NSCLC
# LOX IMVI melanoma = tested on: LOX IMVI melanoma
# MDA-MB-231 breast = tested on: MDA-MB-231 breast
# NCI-H322M lung = tested on: NCI-H322M lung
# OVCAR-3 ovarian = tested on: OVCAR-3 ovarian
# TK-10 renal = tested on: TK-10 renal
# U251 glioblastoma = tested on: U251 glioblastoma
# UACC-62 melanoma = tested on: UACC-62 melanoma
# UO-31 renal = tested on: UO-31 renal
smiles,measurement,setting,value
CCN(CC)CCNC(=O)c1c(C)[nH]c(/C=C2\C(=O)Nc3ccc(F)cc32)c1C,GI50,A498 renal,1.54 µM
same,TGI,A498 renal,3.14 µM
same,GI50,CCRF-CEM leukemia,1.58 µM
same,TGI,CCRF-CEM leukemia,2.94 µM
same,GI50,DU-145 prostate,2.54 µM
same,TGI,DU-145 prostate,11.9 µM
same,GI50,HCC-2998 colon,1.71 µM
same,TGI,HCC-2998 colon,3.32 µM
same,GI50,HOP-62 NSCLC,2.78 µM
same,TGI,HOP-62 NSCLC,8.28 µM
same,GI50,LOX IMVI melanoma,1.39 µM
same,TGI,LOX IMVI melanoma,2.71 µM
same,GI50,MDA-MB-231 breast,2.22 µM
same,TGI,MDA-MB-231 breast,5.5 µM
same,GI50,NCI-H322M lung,2.41 µM
same,TGI,NCI-H322M lung,8.96 µM
same,GI50,OVCAR-3 ovarian,1.78 µM
same,TGI,OVCAR-3 ovarian,3.31 µM
same,GI50,TK-10 renal,3.11 µM
same,TGI,TK-10 renal,8.02 µM
same,GI50,U251 glioblastoma,2.09 µM
same,TGI,U251 glioblastoma,5.09 µM
same,GI50,UACC-62 melanoma,1.8 µM
same,TGI,UACC-62 melanoma,4.46 µM
same,GI50,UO-31 renal,2.17 µM
same,TGI,UO-31 renal,6.36 µM
